Columns and labels:
[1] = tested on: sorafenib induced allodynia; assay: Chronic experiment: rat cold plate test, sorafenib induced allodynia; format: in vivo; conditions: for Licking latency, Before all Treatments: baseline, mean of 8 rats
Procedure: 1986 (86/609/EEC) for experimental animal care.
Dimiracetam, duloxetine and gabapentin were dissolved in water.
Sorafenib was dissolved in a vehicle constituted by 1% ethanol+1% Cremophor+[…]. Sorafenib was administered once daily for 14 days. Dimiracetam was administered by oral gavage twice daily for 14 days (co-administered with sorafenib).
P values≦0.05 were considered significant.

[2] = tested on: sorafenib induced allodynia; assay: Acute experiment: rat cold plate test, sorafenib allodynia; conditions: for Acute antiallodynic efficacy on sorafenib induced allodynia (in words): single p.o. dose on day 14: dimiracetam 300, gabapentin 100, duloxetine 30 mg/kg, rat cold plate
Procedure: Male Sprague Dowley adult rats (200-220 g—aged 7 weeks) were used. Groups of 4 rats were housed in 26 by 41 cm cages that were placed in the experimental room 24 h before the test for acclimatization. The animals were fed a standard laboratory diet and tap water ad libitum and kept at 23±1° C. with a 12 h light/dark cycle, light on at 7 a.m. All experiments were carried out in accordance with the European Communities Council Directive of 24 Nov. 1986 (86/609/EEC) for experimental animal care. All efforts were made to minimize the number of animals used and their suffering.
Dimiracetam, duloxetine and gabapentin were dissolved in water. Drug concentrations were adjusted to a volume of 10 ml/kg for dosing by oral administration or i.p. injection. Sorafenib was dissolved in a vehicle composed by 1% ethanol+1% Cremophor+98% saline for i.p. injection.
Control rats were treated with an equal volume of the sorafenib vehicle. Sorafenib was administered once daily for 14 consecutive days. Dimiracetam, gabapentin and duloxetine were administered once daily on day 14 after sorafenib treatment.
Rats were placed inside a stainless steel container, thermostatically set at 4° C. in a precision water-bath from KW Mechanical Workshop, Siena, Italy. Reaction times (in seconds) were measured with a stop-watch before and at regular intervals; the endpoint used was the licking of the fore or hind paws. An arbitrary cut-off time of 60 s was adopted (see Beyreuther et al., Eur. J. Pharmacol. 565, 98-104, 2007).
All experimental results are given as the mean±S.E.M. An analysis of variance, ANOVA, followed by Fisher's protected least significant difference procedure for post hoc comparison, was used to verify significance between two means of behavioral results. Data were analyzed with the StatView software for the Macintosh (1992). P values≦0.05 were considered significant.

[3] = Blood levels in healthy volunteers during Phase I studies; format: in vivo; conditions: 1600 bid dose (3200 mg daily)
Procedure: Blood levels were determined in healthy volunteers during Phase I studies.
The blood levels were determined for 1600 bid dose (i.e. 3200 mg daily).

[4] = 15 min after single p.o. dose (dimiracetam 300, gabapentin 100, duloxetine 30 mg/kg) on day 14 of sorafenib 10 mg/kg
[5] = 30 min after single p.o. dose (dimiracetam 300, gabapentin 100, duloxetine 30 mg/kg) on day 14 of sorafenib 10 mg/kg
[6] = 60 min after single p.o. dose (dimiracetam 300, gabapentin 100, duloxetine 30 mg/kg) on day 14 of sorafenib 10 mg/kg
[7] = baseline before all treatments, group later given test drug p.o. + sorafenib 10 mg/kg once daily 14 days, cold plate 4° C., mean ± S.E.M., 5 rats
[8] = day 14 of sorafenib 10 mg/kg, before single p.o. dose of test drug, cold plate 4° C.

## O=C1CN2C(=O)CCC2N1 (centres unmarked) [DIMIRACETAM, 2,5-dioxohexahydro-1H-pyrrolo[1,2-a]imidazole]
[1]; group given dimiracetam 150 mg/kg p.o. b.i.d. + sorafenib 10 mg/kg i.p. once daily 14 days
  Licking latency, Before all Treatments: 27.3 ± 1.1 s
[1]; dimiracetam 150 mg/kg p.o. b.i.d. + sorafenib 10 mg/kg i.p. 14 days, 1 h after end of treatment
  Licking latency, After 14 days of treatment, 1 h: 23.8 ± 1.1 s
[1]; dimiracetam 150 mg/kg p.o. b.i.d. + sorafenib 10 mg/kg i.p. 14 days, 4 h after end of treatment
  Licking latency, After 14 days of treatment, 4 h: 23.3 ± 1.1 s
[1]; dimiracetam 150 mg/kg p.o. b.i.d. + sorafenib 10 mg/kg i.p. 14 days, 8 h after end of treatment
  Licking latency, After 14 days of treatment, 8 h: 22.8 ± 1.2 s
[1]; dimiracetam 150 mg/kg p.o. b.i.d. + sorafenib 10 mg/kg i.p. 14 days, 24 h after end of treatment
  Licking latency, After 14 days of treatment, 24 h: 21.9 ± 1.1 s
[1]; dimiracetam 150 mg/kg p.o. b.i.d. + sorafenib 10 mg/kg i.p. 14 days, 48 h after end of treatment
  Licking latency, After 14 days of treatment, 48 h: 19.0 ± 0.6 ^ s
[1]; dimiracetam 150 mg/kg p.o. b.i.d. + sorafenib 10 mg/kg i.p. 14 days, 72 h after end of treatment
  Licking latency, After 14 days of treatment, 72 h: 14.9 ± 0.6 s
[1]; dimiracetam 150 mg/kg p.o. b.i.d. + sorafenib 10 mg/kg i.p. 14 days, before last administration
  Licking latency, After 14 days of treatment, Pretest: 24.3 ± 0.8 s
[1]; dimiracetam 150 mg/kg p.o. b.i.d. for 14 consecutive days with sorafenib
  Duration of statistically significant antiallodynic effect after end of treatment: up to 48 h
[1]; dimiracetam 150 mg/kg p.o. b.i.d. for 14 consecutive days, evaluated on day 14
  Chronic antiallodynic effect (in words): statistically significant antiallodynic effect
[1]; general statement, no data given
  Development of tolerance (in words): not to develop tolerance
[2]; [4]
  Licking latency, 14° day 15 min: 19.8 ± 1.5 s
[2]; [5]
  Licking latency, 14° day 30 min: 16.0 ± 1.9 s
[2]; [6]
  Licking latency, 14° day 60 min: 15.4 ± 1.4 s
[2]; [7]
  Licking latency, Pre test before all treatments: 26.8 ± 3.0 s
[2]; baseline, group given sorafenib vehicle i.p. + dimiracetam 300 mg/kg p.o. (no sorafenib)
  Licking latency, Pre test before all treatments: 27.2 ± 2.8 s
[2]; [8]
  Licking latency, 14° day Pre test: 15.8 ± 1.8 s
[2]
  Acute antiallodynic efficacy on sorafenib induced allodynia (in words): statistically significant effect on sorafenib induced allodynia 15 min after administration
[2]; vehicle i.p. 14 days (no sorafenib), before dimiracetam 300 mg/kg p.o.
  Licking latency, 14° day Pre test: 28.4 ± 2.1 s
[2]; vehicle i.p. (no sorafenib), 15 min after dimiracetam 300 mg/kg p.o.
  Licking latency, 14° day 15 min: 29.0 ± 1.9 s
[2]; vehicle i.p. (no sorafenib), 30 min after dimiracetam 300 mg/kg p.o.
  Licking latency, 14° day 30 min: 28.2 ± 2.3 s
[2]; vehicle i.p. (no sorafenib), 60 min after dimiracetam 300 mg/kg p.o.
  Licking latency, 14° day 60 min: 27.2 ± 3.0 s
[3]
  Blood level, mean minimal level over 24 hours (Cmin): 136 µM
[3]; human, blood, read-out: Blood level, mean maximal level over 24 hours (Cmax)
  Cmax: 536 µM

## CNCC[C@H](Oc1cccc2ccccc12)c1cccs1 [DULOXETINE, duloxetine]
[2]; [4]
  Licking latency, 14° day 15 min: 14.2 ± 1.6 s
[2]; [5]
  Licking latency, 14° day 30 min: 14.6 ± 1.5 s
[2]; [6]
  Licking latency, 14° day 60 min: 13.4 ± 1.7 s
[2]; [7]
  Licking latency, Pre test before all treatments: 27.8 ± 1.7 s
[2]; [8]
  Licking latency, 14° day Pre test: 13.2 ± 1.2 s
[2]
  Acute antiallodynic efficacy on sorafenib induced allodynia (in words): no significant effect

## NCC1(CC(=O)O)CCCCC1 [GABAPENTIN, gabapentin]
[2]; [4]
  Licking latency, 14° day 15 min: 13.2 ± 1.8 s
[2]; [5]
  Licking latency, 14° day 30 min: 13.6 ± 1.2 s
[2]; [6]
  Licking latency, 14° day 60 min: 13.8 ± 1.8 s
[2]; [7]
  Licking latency, Pre test before all treatments: 26.8 ± 2.3 s
[2]; [8]
  Licking latency, 14° day Pre test: 15.4 ± 2.0 s
[2]
  Acute antiallodynic efficacy on sorafenib induced allodynia (in words): no significant effect

## CNC(=O)c1cc(Oc2ccc(NC(=O)Nc3ccc(Cl)c(C(F)(F)F)c3)cc2)ccn1 [SORAFENIB, sorafenib]
[1]; group given water + sorafenib 10 mg/kg i.p. once daily 14 days
  Licking latency, Before all Treatments: 26.9 ± 1.4 s
[1]; water + sorafenib 10 mg/kg i.p. once daily 14 days
  Licking latency, After 14 days of treatment, Pretest: 14.8 ± 1.3 s
[1]; water + sorafenib 10 mg/kg i.p. once daily 14 days, 1 h
  Licking latency, After 14 days of treatment, 1 h: 14.3 ± 1.4 s
[1]; water + sorafenib 10 mg/kg i.p. once daily 14 days, 4 h
  Licking latency, After 14 days of treatment, 4 h: 15.1 ± 1.5 s
[1]; water + sorafenib 10 mg/kg i.p. once daily 14 days, 8 h
  Licking latency, After 14 days of treatment, 8 h: 16.0 ± 1.1 s
[1]; water + sorafenib 10 mg/kg i.p. once daily 14 days, 24 h
  Licking latency, After 14 days of treatment, 24 h: 14.0 ± 1.1 s
[1]; water + sorafenib 10 mg/kg i.p. once daily 14 days, 48 h
  Licking latency, After 14 days of treatment, 48 h: 14.3 ± 1.2 s
[1]; water + sorafenib 10 mg/kg i.p. once daily 14 days, 72 h
  Licking latency, After 14 days of treatment, 72 h: 15.0 ± 1.0 s
[2]; baseline, group given sorafenib 10 mg/kg i.p. + water p.o.
  Licking latency, Pre test before all treatments: 28.6 ± 2.1 s
[2]; sorafenib 10 mg/kg i.p. once daily 14 days, 15 min after water p.o.
  Licking latency, 14° day 15 min: 14.0 ± 1.8 s
[2]; sorafenib 10 mg/kg i.p. once daily 14 days, 30 min after water p.o.
  Licking latency, 14° day 30 min: 13.6 ± 1.8 s
[2]; sorafenib 10 mg/kg i.p. once daily 14 days, 60 min after water p.o.
  Licking latency, 14° day 60 min: 14.4 ± 2.3 s
[2]; sorafenib 10 mg/kg i.p. once daily 14 days, before water p.o.
  Licking latency, 14° day Pre test: 13.8 ± 2.0 s
[2]; sorafenib 10 mg/kg i.p. once daily in rats, cold plate, day 14
  Induction of allodynia by sorafenib (in words): induced an allodynic responses to thermal stimuli

From patent publication US20140051730A1, “THERAPEUTIC USE OF DIMIRACETAM TO PREVENT THE HAND AND FOOT SYNDROME CAUSED BY SORAFENIB” (NEUROTUNE AG, priority 2010, published 2014)
